# Measured values as given in ChEMBL document CHEMBL1158988, “Cytotoxic norditerpene lactones from Ileostylus micranthus” (J Nat Prod, 1991).
# System: P388
# Assay: Cytotoxicity against mouse P388 cells
# Type: functional, cell-based
row,SMILES,IC50
1,CC(C)[C@H]1OC(=O)C=C2[C@@]13O[C@@H]3[C@H]1OC(=O)[C@@]3(C)C[C@H](O)C[C@@]2(C)[C@@H]13,0.06 µg/mL
2,CC(C)[C@H]1OC(=O)C=C2C1=C[C@H]1OC(=O)[C@@]3(C)C[C@H](O)C[C@@]2(C)[C@@H]13,0.06 µg/mL
3,CC(C)c1oc(=O)cc2c1[C@@H](O)[C@H]1OC(=O)[C@@]3(C)C[C@H]4O[C@H]4[C@@]2(C)[C@@H]13,0.65 µg/mL
4,CC(C)c1oc(=O)cc2c1[C@@H](O)[C@H]1OC(=O)[C@@]3(C)[C@@H](O)[C@H]4O[C@H]4[C@@]2(C)[C@@H]13 [NAGILACTONE C],0.33 µg/mL
5,C=C[C@H]1OC(=O)C=C2C1=C[C@H]1OC(=O)[C@]3(C)[C@H]1[C@]2(C)[C@H]1O[C@H]1[C@@H]3O [PODOLACTONE E],< 0.01 µg/mL
